Data as given in US10751423B2 (Massachusetts Institute of Technology, priority 2016, dated 2020).
Non-standard residues stand in square brackets, D forms with d. Residues, ends and D or L forms follow the SMILES beside them. *: point of attachment. Dolaproine = CO[C@@H]([C@@H]1CCCN1)[C@@H](C)C(=O)O; Dil = CC[C@H](C)[C@H](NC)[C@@H](CC(=O)O)OC; X1 = C[C@@H](N*)[C@@H](O)c1ccccc1; NMeV = CN[C@H](C(=O)O)C(C)C

Assays:
BCL-2 siRNA = assay: siRNA binding with various platinum species by MALDI-TOF-MS; settings: 10-fold excess of platinum species
Experimental: A single-stranded siRNA (UCAGGUACUCAGUCAUCCACATT) (SEQ ID NO: 3) was mixed with OxaPt(II) at a molar ratio of 1:10 in RNAase free water (RNA final concentration: 50 μM; Pt final concentration: 500 μM; total volume: 100 μL). The reaction mixture was placed in a 37° C. incubator and 10 μL of sample were removed at various time points to obtain MALDI-TOF-MS spectra (positive model). Analogous methods were employed to obtain spectra of the reaction products of siRNA with OxaPt(IV), CisPt(II) and CisPt(IV).
MALDI/TOF MS was used to ascertain the kinetics of platinum-RNA adduct formation using BCL-2 siRNA that was incubated with a 10-fold excess of various platinum(II) or platinum(IV) species. […] AAS measurements of siRNA that had been isolated after co-incubation with various platinum species was conducted to determine the concentration of Pt-siRNA adducts formed over time.

[1] = photostability under continuous laser irradiation; type: physicochemical
Text: FIG. 31D is a plot showing measurements of the photostability of various emissive components of core-shell nanoparticles under continuous irradiation. Note, the same excitation energies were utilized as in FIG. 31C; and, emission was detected using various excitation and emission filters. The photostability of DiR in THF (DiR in THF; black) was included for comparative purposes.
In addition to the emission of these extrinsic reporters, bioluminescence due to the luciferaseluciferin reaction and RFP fluorescence upon 535 nm excitation are also included in FIG. 31C, generating a spectral comparison of all reporters that were subsequently utilized for in vivo and ex vivo imaging (vide infra). Prior to embarking on comparisons of in vivo imaging with different reporters, we examined the photostability of each of the emissive components within the core-shell nanoparticles.

[2] = read-out: in vitro IC50; cited from earlier work
5′-GMP = 5′-GMP binding with various platinum species by 1HNMR; settings: 10 mM 5′-GMP, 5 mM Pt, 37° C.
Experimental: (10 mM) 5′-GMP and (5 mM) OxaPt(II) were mixed in 700 μL of D2O/H2O (v/v=1:9), transferred to an NMR tube and placed in a 37° C. water bath for various time periods prior to ^1HNMR measurement. […] The binding kinetics of 5′-GMP to each platinum species were determined by measuring the relative amounts of free and Pt-bound 5′-GMP at each time point, integrating the ratio of the ^1HNMR peaks at 8.5 ppm to 8.09 ppm.
OxaPt(II) and CisPt(II) are known to bind to guanine (G) and adenine (A) bases in both DNA and RNA. […] Formation of Pt-(5′-GMP)2 adducts were subsequently monitored by ESI-MS (FIG. 4A and FIG. 4B) and by MALDI/TOF MS (data not shown). Differences in the kinetics of adduct formation by various platinum(II) and platinum(IV) species were subsequently studied by ^1H NMR spectroscopy under similar conditions.

For `N.N.[Cl][Pt][Cl]` [CisPt(II), cisplatin], the “time at which Pt-siRNA adducts could be detected” value (BCL-2 siRNA) was no more than 30 m.
For `CCCCCCCCCCCCCCCCCCN1C(=CC=CC=CC=CC2=[N+](CCCCCCCCCCCCCCCCCC)c3ccccc3C2(C)C)C(C)(C)c2ccccc21.[I-]` [DiR, 1,1′-dioctadecyl-3,3,3′,3′-tetramethylindotricarbocyanine iodide], the “initial emission intensity maintained” value ([1]; DiR incorporated within the PCL shell of the nanoparticles, 1 h) was 88% and the fluorescence decrease ([1]; free DiR in THF, 1 h of continuous excitation) was “over 30%”.
For `CC[C@H](C)[C@@H]([C@@H](CC(=O)N1CCC[C@H]1[C@H](OC)[C@@H](C)C(=O)N[C@H](C)[C@@H](O)c1ccccc1)OC)N(C)C(=O)[C@@H](NC(=O)[C@@H](NC)C(C)C)C(C)C` [MMAE, monomethyl auristatin E] (H-[NMeV]V[Dil][Dolaproine]-X1), the IC50 [2] is given as 0.2 to 0.6 nM.
In the case of `O=C1[O][Pt]2([NH][C@@H]3CCCC[C@H]3[NH]2)[O]C1=O` [OxaPt(II), Oxaliplatin], the “time at which Pt-siRNA adducts could be detected” value (BCL-2 siRNA) is reported as 1 h, the “DACHPt(5′-GMP)2 adducts as share of the 5′-GMP pool” value (5′-GMP; 30 m incubation) is reported as “approximately 10%” and the “DACHPt(5′-GMP)2 adducts as share of the 5′-GMP pool” value (5′-GMP; 6 h incubation) is reported as greater than 40%.
